Test results from patent US20230172945A1, “APPLICATION OF COMPOUNDS IN CONTROLLING OR KILLING MITES” (SMILEBIOTEK ZHUHAI LIMITED, priority 2020, published 2023).

System: D. folliculorum
Assay: In-vitro culture of Demodex mites: effect of compounds on survival time
Type: cell-based
Conditions: for survival time of the Demodex mites in vitro: compared with negative control 10% DMSO (80.79±25.34); for survival time of the Demodex mites in vitro / Survival time: 20° C., humidity 96%; for Survival time: in vitro, 35 μL solution in 10% DMSO on glass slide, observed every 2 hours, mean ± spread; for effect on survival time of mites as compared with the control group (in words): versus 10% DMSO negative control
Procedure: The powders of the reference compounds shown in Table 1 were separately dissolved in dimethyl sulfoxide (DMSO), and then diluted with sterilized double-distilled water to make the final concentration of DMSO 10%, which could not shorten the survival time of Demodex mites as per a controlled study. The negative control group received DMSO mixed with sterilized water at a final concentration of 10%.
35 μL of each solution was added to a glass slide, and the survival of the mites was observed under an optical microscope every 2 hours. During the experiment, the Demodex mites were observed by two skilled operators separately for the activities (bodies, limbs and the like) through the microscope to determine whether they were dead or not. If the two operators gave different results, the survival status was determined independently by a third skilled operator. The in-vitro culture was conducted in a climatic chamber at a temperature of 20° C. and a humidity of 96%. During the observation, the glass slides were transported in a wet box to ensure the high humidity.
In this experiment, statistical analysis was conducted using SPSS22.0 statistical software, normality test was conducted using Shapiro-Wilk test, and homogeneity of variance test was conducted using Bartlett's test.
Effects of compounds on survival time of D. folliculorum The in-vitro culture of the Demodex mites was conducted in an environment at a humidity of 96% and a temperature of 20° C. The survival of the Demodex mites was observed dynamically and the survival time was recorded.

Compound	survival time of the Demodex mites in vitro	Survival time [h]	effect on survival time of mites as compared with the control group (in words)
COc1ccc(-c2cc(=O)c3c(O)cc(O)cc3o2)cc1O [Diosmetin]	35.92±14.82	35.92 ± 14.82	significantly shorten the survival time of mites
C=C[C@@H]1C2=CCOC(=O)C2=CO[C@H]1O[C@@H]1O[C@H](CO)[C@@H](O)[C@H](O)[C@H]1O [Gentiopicroside]	37.31±36.06	37.31 ± 36.06	significantly shorten the survival time of mites
C[C@@H]1[C@H]2[C@H](O[C@@H]3O[C@H](CO)[C@@H](O)[C@H](O)[C@H]3O)OC=C(C(=O)O)[C@H]2C[C@@H]1O [Loganic acid]		61.56 ± 22.84	
C=C(C)[C@@H]1CC[C@]2(C)CC[C@]3(C)[C@H](CC[C@@H]4[C@@]5(C)CCC(=O)C(C)(C)[C@@H]5CC[C@]43C)[C@@H]12 [Lupenone]		66.25 ± 31.22	
C=C(C)[C@@H]1CC[C@]2(C)[C@H](CC=C3[C@@H]4[C@@H](C)[C@H](C)CC[C@]4(C)CC[C@]32C)[C@@]1(C)CCC(=O)O [Roburic acid]		63.41 ± 12.20	
C=C[C@H]1[C@H](O[C@@H]2O[C@H](CO)[C@@H](O)[C@H](O)[C@H]2O)OC=C2C(=O)OCC[C@H]21 [Sweroside]		60.79 ± 25.98	
C=C[C@H]1[C@H](O[C@@H]2O[C@H](CO)[C@@H](O)[C@H](O)[C@H]2O)OC=C2C(=O)OCC[C@]21O [Swertiamarin]		59.68 ± 10.97	
C=C1CC[C@]2(C)CC[C@]3(C)[C@H](CC[C@@H]4[C@@]5(C)CC[C@H](OC(C)=O)C(C)(C)[C@@H]5CC[C@]43C)[C@H]2[C@@H]1C [Taraxasterol acetate]	37.91±20.96	34.14 ± 22.96	significantly shorten the survival time of mites
C=C1CC[C@]2(C)CC[C@]3(C)[C@H](CC[C@@H]4[C@@]5(C)CC[C@H](O)C(C)(C)[C@@H]5CC[C@]43C)[C@H]2[C@@H]1C [Taraxasterol]		68.28 ± 31.30	
CC1(C)CC[C@]2(C)CC=C3[C@]4(C)CC[C@H]5C(C)(C)[C@@H](O)CC[C@]5(C)[C@H]4CC[C@@]3(C)[C@@H]2C1 [Taraxerol]	37.91±20.96	37.91 ± 20.96	significantly shorten the survival time of mites
CC1(C)CC[C@]2(C)CC=C3[C@]4(C)CC[C@H]5C(C)(C)C(=O)CC[C@]5(C)[C@H]4CC[C@@]3(C)[C@@H]2C1 [Taraxerone]		62.06 ± 28.97	
CC(=O)O[C@H]1CC[C@]2(C)[C@H]3CC[C@]4(C)C(=CC[C@@]5(C)CCC(C)(C)C[C@H]54)[C@]3(C)CC[C@H]2C1(C)C [Taraxeryl acetate]		70.57 ± 27.45	
